Key:
colectomy patients = settings: more than 500 colectomy patients, two randomized clinical trials; cited from earlier work
[1] = system: cancer subjects with opioid-induced constipation (tumor disease progression); assay: Pooled analysis of Study 1 and Study 2: adverse events of disease progression; type: in vivo, human
Excerpt: As part of the routine adverse event (AE) evaluations filled out by all investigators in the studies described in Examples 1 and 2, AEs of tumor progression were tabulated. Both studies were randomized, placebo-controlled trials that involved a 2-week treatment period followed by a 2-week follow-up period. The enrolled subjects were advanced illness (incurable cancer or other end-stage disease) subjects with OIC who were receiving stable doses of laxatives and opioid analgesics. In the context of the study, a stable dose of opioid analgesics was defined as no reduction in the dose of opioid analgesic of ≥50% for at least three days before the first dose of MNTX. A stable dose of laxatives was defined as having a standing laxative order (and not PRN, or as-needed) for at least three days before the first dose of MNTX. A diagnosis of constipation was provided if the subject had (a) fewer than 3 bowel movements during the previous week by history and no clinically notable laxation in the 24 hours before the first dose of MNTX, or (b) no clinical notable laxation in the 48 hours before the first dose of MNTX. In Study 1 (Example 1), subjects received subcutaneous MNTX 0.15 mg/kg or placebo (PBO) every other day (QOD), and in Study 2 (Example 2) subjects received subcutaneous MNTX (8 mg or 12 mg based on body weight 38 to <62 kg or ≥62 kg, respectively) or placebo administered QOD. The 12 mg fixed dose was designed to correspond to the 0.15 mg/kg weight-based dose. Rescue-laxatives, enemas or manual disimpactions were not administered within 4 hours before or after each dose of MNTX. For the purpose of this analysis, only subjects with a cancer-related diagnosis were considered. For statistical significance testing, the Fisher's exact test was used (p<0.05).
Table 1 and FIG. 1 provide AEs of disease progression in the pooled analysis and for each individual study during the double-blind phase of the studies.
Furthermore, when the pool of MNTX-treated subjects across both studies was examined, there was a significant decrease in the percentage of subjects with disease progression between subjects who responded to MNTX treatment and those who were considered non-responders. A subject with laxation within 4 hours after two of the first four doses of MNTX was considered a responder.
For the analysis carried out in this Example and in Example 3, a subject with laxation occurring from 0-4 hours after two of the first four doses of MNTX was considered a MNTX responder or responsive subject. Data for placebo patients who elected to participate in the open-label MNTX treatment phase was collected from the first 4 doses of open-label treatment. Data for the MNTX-treated patients was collected from the first 4 doses of the double-blind phase of the study.

[2] = Plasma levels after oral administration; type: in vivo
Experimental: Methylnaltrexone is rapidly absorbed after oral administration from the stomach and bowel. Initial plasma levels of the drug are seen within 5-10 minutes of the administration of non-enteric coated compound.

Lewis lung cancer model = settings: infusion of MNTX; cited from earlier work
[3] = system: subjects with advanced medical illness and opioid-induced constipation; assay: Study 1: double-blind, randomized, placebo-controlled study of subcutaneous methylnaltrexone; type: in vivo, human
Experimental: A double-blind, randomized, placebo-controlled study of subcutaneous methylnaltrexone (MNTX) was conducted in subjects with advanced medical illness and a current history of opioid-induced constipation. To satisfy eligibility criteria for enrollment, subjects were required to be on stable doses of laxatives and opioid analgesics. In the context of the study, a stable dose of opioid analgesics was defined as no reduction in the dose of opioid analgesic of ≥50% for at least three days before the first dose of MNTX. A stable dose of laxatives was defined as having a standing laxative order (and not PRN, or as-needed) for at least three days before the first dose of MNTX. A diagnosis of constipation was provided if the subject had fewer than 3 bowel movements during the previous week by history and no clinically notable laxation in the 24 hours before the first dose of MNTX, or no clinical notable laxation in the 48 hours before the first dose of MNTX.
Eligible subjects were randomized to one of two treatment groups: MNTX 0.15 mg/kg (e.g., 8 mg for patients <62 kg body weight and 12 mg for patients ≥62 kg body weight) or placebo. Each treatment was administered every other day (QOD) subcutaneously for two weeks. Injections were administered subcutaneously in either the shoulder area, buttocks, abdomen, thighs or extremities. Rescue-laxatives, enemas or manual disimpactions were not administered within 4 hours before or after each dose of MNTX. Endpoints included: (1) the proportion of subjects with rescue-free laxation within 4 hours of the first dose of study drug, and (2) the proportion of subjects with ≥2 rescue-free laxations within 4 hours post dosing over 4 doses of study drug (the first week of the two-week treatment period). One hundred and thirty-four (134) subjects were enrolled and evaluated, including 78 patients with advanced cancers and 56 patients with other advanced illness, including COPD, cardiovascular disease and severe neurologic disease. Seventy-one (71) of the 134 subjects were randomized to the placebo group, and sixty-two (62) of the 134 subjects were randomized to MNTX treatment group. The co-primary efficacy endpoints of this study were: 1) the proportion of patients with laxation within 4 hours after the first dose of study drug, and 2) the proportion of patients with laxation within 4 hours after 2 of the first 4 doses (the first week of double-blind treatment). The primary endpoint was laxation within 4 hours. Secondary endpoints included the use of rescue medication and frequency of symptoms within 24 hours. […]

[4] = MNTX 0.15 mg/kg SC QOD, double-blind
[5] = regardless of the time after dose

In the case of C[N@+]1(CC2CC2)CC[C@]23c4c5ccc(O)c4O[C@H]2C(=O)CC[C@@]3(O)[C@H]1C5.[Br-] [MNTX, (R)—N-(cyclopropylmethyl) noroxymorphone methobromide], the “safety and perioperative analgesia” value (colectomy patients) is listed as “safely given”, the “Adverse Events of Disease Progression, n/N” value (shortened to “Adverse Events … n/N”) ([1]; Combined (Study 1 & Study 2), double-blind phase, cancer subjects) is listed as 16/116 and the “% Progression” value ([1]; MNTX Non-Responders) is listed as 22.0%. For the same compound, the “Disease Progression (number of subjects)” value ([1]; MNTX Non-Responders) was 11, the “No Disease Progression (number of subjects)” value (from here on “No Disease Progression”) ([1]; MNTX Non-Responders) was 39 and the “% Progression” value ([1]; MNTX Responders) was 7.6%. For the same compound, the “No Disease Progression” value ([1]; MNTX Responders) was 61, the “Disease Progression (number of subjects)” value ([1]; MNTX Responders (laxation within 4 hours after two of the first four doses)) was 5 and the “No Disease Progression” value ([1]; MNTX Total) was 100. For the same compound, the “Disease Progression (number of subjects)” value ([1]; MNTX Total, pooled) was 16, the “Adverse Events of Disease Progression, %” value ([1]; Study 1, double-blind phase) was “(16.2%)” and the “Adverse Events … n/N” value ([1]; Study 1, double-blind phase) was 6/37. The “Adverse Events of Disease Progression, %” value ([1]; Study 2, double-blind phase) was “(12.7%)”, the “Adverse Events … n/N” value ([1]; Study 2, double-blind phase) was 10/79 and the “reduction in the incidence of AE of disease progression versus placebo” value ([1]; pooled analysis) was about 46%. The “plasma levels with an enteric coating which prevents gastric absorption” value ([2]; enteric coated, oral) was “lower plasma levels”, the “time to initial plasma levels after oral administration” value ([2]; non-enteric coated compound) was 5 to 10 min and the “tumor growth and metastasis” value (Lewis lung cancer model) was “dramatically reduced growth and metastasis”. The “subjects with improvement in constipation distress” value (“subjects with improvement” for short) ([3]; Day 1) was 53%, the “subjects for whom the bowel status was improved (second global rating, 'Likewise')” value ([3]; Day 7) was 69.4% and the “subjects who rated their bowel status improved (global rating scale)” value ([3]; Day 7) was 73.5%. The “subjects with improvement” value ([3]; Day 7) was 64%, the “subjects for whom the bowel status was improved (second global rating, 'Likewise')” value ([3]; Day 14) was 67.9% and the “subjects who rated their bowel status improved (global rating scale)” value ([3]; Day 14) was 67.9%. The “subjects with improvement” value ([3]; Day 14) was 60%, the “subjects with rescue-free laxation within 4 hours after at least 2 of the first 4 doses” value ([3]; MNTX 0.15 mg/kg SC QOD) was 51.6% and the “subjects with rescue-free laxation within 4 hours after at least 2 of the first 4 doses (number)” value ([3]; MNTX 0.15 mg/kg SC QOD) was “Thirty-two”. For the same compound, the “subjects with rescue-free laxation within 4 hours after at least 4 of the maximum 7 doses” value ([3]; MNTX 0.15 mg/kg SC QOD) was 38.7%, the “subjects with rescue-free laxation within 4 hours after at least 4 of the maximum 7 doses (number)” value ([3]; MNTX 0.15 mg/kg SC QOD) was “twenty-four” and the “subjects with rescue-free laxation within 4 hours after the first dose” value [3, 4] was 48.4%. For the same compound, the “subjects with rescue-free laxation within 4 hours after the first dose (number)” value [3, 4] was 30 subjects, the “median time to rescue-free laxation after the first dose” value ([3]; based on the subjects who had laxation) was 1.0 h and the subjects using enemas ([3]; during double-blind treatment (baseline 12.7%)) was 23.8%. For the same compound, the “subjects using osmotic agents” value ([3]; during the study (baseline 30.2%)) was 33.3%, the “subjects with at least one rescue-free laxation” value ([3]; first week of treatment) was 95.2% and the “rescue-free laxations within 4 hours after any dose rated as moderate, considerable, or great difficulty” value ([3]; in vivo) was 33.0%. For the same compound, the “subjects with rescue-free laxations within 4 hours after any individual dose” value ([3]; range over doses) was 37.3-48.4%, the “subjects with rescue-free laxations within 24 hours after any individual dose” value ([3]; range over doses) was 55.4-66.0% and the “subjects with at least three rescue-free laxations per week” value [3, 5] was 67.7%. For the same compound, the “subjects with at least three rescue-free laxations per week (number)” value [3, 5] was 42 subjects, the watery bowel movements ([3]; rescue-free laxations within 4 hours after any dose) was 15.9% and the “subjects with at least one rescue-free laxation” value ([3]; second week of treatment) was 91.2%.
